Patent publication US7790171B1, “Antiviral peptides obtained from the tryptophan-rich hydrophobic cluster of the HIV-1 reverse transcriptase” (priority 2000, dated 2010)
Where no end group is shown, it is not given here.

Key:
[1] = tested on: CEM cells; experiment: Toxicity in CEM cells; type: cell-based, human
[2] = biological target: HIV-1 RT dimerization (p66/p51) (Human immunodeficiency virus type 1 group M subtype B, UniProt P03366); details: cited from earlier work
[3] = tested on: HIV-2 ROD; experiment: RT activity assay of viral production in HIV-2 ROD-infected CEM cells; type: cell-based
Description: (§1) FIG. 1: Effect of different concentrations of MPG/p7 (SEQ ID NO:1) on HIV-1 and HIV-2 in CEM cell cultures. CEM cells exposed to 100 μl of viral suspensions containing 1000×50% tissue culture infective dose (TCID50)/m1 of HIV-1 BRU (left panels) or HIV-2 ROD (right panels). a, HIV-infected cells were cultured in medium alone (white diamonds) or medium supplemented with MPG/p7 at 10^−7 M (black circles), 10^−8 M, (black up triangles), 10^−9 M (black diamonds), and 10^−10 M (black squares). b, As controls, HIV-infected cells were treated with either azidothymidine (AZT: 10^−5 M) (white squares) or peptide MPG/p237 (SEQ ID NO:5) at 10^−6 M (black down triangles). Viral production was monitored by measuring RT activity twice a week post infection. Culture supernatants from virus-free CEM were tested as a control (white circles, FIG. 1b).
(§2) RI activity assay. CEM cells were incubated for 30 mm at 4° C. with 100 μl of stock HIV preparation corresponding to 1000×50% tissue culture infective dose (TCID50)/ml, then cells were washed five times and cultured at 5×10^5 cell/ml in 24-well microplates in the presence or absence of MPG/p7 (at 10^−8 and 10^−7 M) or AZT (AZT was purchased from Boehringer Mannheim, Germany) additive. Viral production was monitored twice a week by measuring reverse transcriptase activity in 1 ml of cell-free supernatant as previously described (39).

[4] = tested on: HIV-1 RTMC; experiment: β-gal activity assay in MAGIC-5 cells, HIV-1 RTMC; type: cell-based
Description: (§3) FIG. 3: Effect of MPG/p7 (SEQ ID NO:1) on replication of reference escape variant viruses. MAGIC-5 cells were incubated with 50 μl of stock HIV preparation corresponding to 1000×TCID50/ml of a, HIV-1 BRU; b, HIV-1 RTMF; c, HIV-1 RTMC; d, HIV-1 74V (FIG. 3.A); e, HIV-1 N119; f, HIV-1 RTMDR1 (FIG. 3.B), in medium alone (lane 2) or medium supplemented with AZT at 10^−5 M, 10^−6 M, 10^−7 M, 10^−8 M, 10^−9 M, and 10^−10 M (lanes 3 to 8 respectively), MPG/p7 at 10^−8 and 10^−7M (lanes 9 and 10), or MPG/p237 at 10^−6M (lane 11) additive. β-gal activity was evaluated on day 3 after virus exposure. β-gal activity in uninfected MAGIC5 cells was measured as control (lane 1). All results have been normalized (see legend of FIG. 2). The calculated values represent means of duplicate. Each figure is representative of at least three independent experiments.
(§4) β-gal activity assay. […] After 3 days in culture, cells were lysed and β-gal activity was determined by incubating 200 μl of total cellular extracts for 1 hat 37° C. in 1.5 ml buffer containing 80 mM NA2HPO4, 10 mM MgCl2, 1 mM 2 ME and 6 mM o-nitrophenyl β-D-galactopyranoside (ONPG). β-gal activity was evaluated by measuring absorbance at 410 nm.

[5] = tested on: HIV-1 BRU; experiment: RT activity assay of viral production in HIV-1 BRU-infected CEM cells; type: cell-based
Description: as §1, §2

[6] = tested on: HIV-2 ROD, EHO (clades A and B); experiment: β-gal activity assay in MAGIC-5 cells, HIV-2 isolates; type: cell-based; details: MAGIC5 cells, β-gal activity day 3
Description: (§5) FIG. 2: Effect of MPG/p7 (SEQ ID NO:1) on replication of different subtypes of HIV-1 and HIV-2 studied using MAGIC5 cells. MAGIC-5 cells were incubated with 50 μl of stock HIV preparation corresponding to 1000×TCID50/ml. a, HIV-1 BRU; b, HIV-1 RF; c, HIV-1 SF2 (FIG. 2.A); d, HIV-1 NDK; e, HIV-1 ELI; f, HIV-2 ROD; g, HIV-2 EHO (FIG. 2.B) in medium alone (lane 2), medium supplemented with AZT (10^−5 M) (lane 3), MPG/p7 at 10^−7 and 10^−8 M (lane 4 and 5 respectively), or MPG/p237 (SEQ ID NO:5) at 10^−6 M (lane 6) additive. After 3 days in culture, 13-gal activity was evaluated in cell lysates by measuring absorbance at 410 nm. β-gal activity in uninfected MAGIC5 cells was measured as control (lane 1). […] The calculated values represent means of duplicate. […]
as §4
(§6) The efficiency of MPG/p7 monitored using the previously described MAGIC5 transfectant cells that express surface CD4, CXCR4 and CCR5 receptors and contain a reporter gene under control of an HIV-1 promoter that can be induced upon infection of the cells. […]

[7] = tested on: HIV-1 RTMF, HIV-1 RTMC, HIV-1 74V, HIV-1 N119 and HIV-1 RTMDR1; experiment: β-gal activity assay in MAGIC-5 cells, anti-RT drug resistant HIV-1 strains; type: cell-based; details: β-gal activity day 3
Description: as §3
as §4, with “nm. […]” for “nm.”

[8] = tested on: HIV-1 BRU; details: cited from earlier work
[9] = tested on: HIV-1 RTMDR1; experiment: β-gal activity assay in MAGIC-5 cells, HIV-1 RTMDR1; type: cell-based; details: FIG. 3f
Description: as §3, §4

[10] = tested on: HIV-1 BRU, RF, SF2, NDK, ELI (clades B and D); experiment: β-gal activity assay in MAGIC-5 cells, HIV-1 isolates; type: cell-based; details: MAGIC5 cells, β-gal activity day 3, X4 and R5/X4 strains
Description: as §5, §4, §6

Substance	concentrations without any toxicity in CEM cells [1]	inhibition of HIV-1BRU RT dimerization in vitro (previously shown) [2]	delay in HIV-2 replication ([3]; 10^−9 M of MPG/p7, CEM cells) [days]	concentrations that strongly delay HIV-2ROD propagation ([3]; RT activity in supernatant, CEM cells)	concentration required to inhibit HIV-1 RTMC relative to other viruses ([4]; FIG. 3c)	concentration required to completely inhibit HIV-1 RTMC ([4]; data not shown)	effect on HIV-1BRU replication at 10^−9 M ([5]; 10^−9 M, RT activity at the end of culture (day 17), CEM cells)	delay in HIV-1 replication ([5]; 10^−10 M of MPG/p7, CEM cells) [days]	concentration that abolishes the production of viral particles ([5]; HIV-1 BRU-infected cultured CEM cells)	concentrations that totally inhibit HIV-1BRU replication ([5]; RT activity in cell free supernatant, 17 days of incubation, CEM cells)	concentration at which all HIV-2 strains tested were susceptible [6]	sensitivity of escape mutant viruses to treatment [7]	inhibition of HIV-1BRU replication in CEM cell culture (previously shown) [8]	concentration required to inhibit HIV-1 RTMDR1 relative to other viruses [9]	concentration at which all HIV-1 strains tested were susceptible [10]
KETWETWWTE [p7, KETWETWWTE]	below 10^−5 M														
MPG/p7: non-covalent complex of peptide p7 (SEQ ID NO:1) with carrier peptide MPG (SEQ ID NO:2) (chain 1 KETWETWWTE; chain 2 GALFLGFLGAAGSTMGAWSQPKSKRKV; also: non-covalent complex of p7 with carrier MPG)		inhibit	3	above 10^−7 M	higher than that required to block the other viruses	10^−6 M	very slow virus propagation	3	10^−8 M	above 10^−8 M	10^−8 M	sensitive	inhibit	higher than that required to block the other viruses	10^−8 M
